Data on one substance can be found in patent US9642821B2, “MiR-182 in the diagnosis and treatment of cancer” (Dana-Farber Cancer Institute, Inc., priority 2010, dated 2017).

“Also recorded” adds a separate entry of the source.

Common to all, as to assay type: cell-based
Series [1] concerns U2OS cells. The experiment in a line: G2/M checkpoint, phospho-H3 flow cytometry after IR. Conditions: 5 Gy IR, nocodazole, P-H3 staining. The method, then: U2OS cells (0.35×10^6 cells/well) were transfected with 10 nM control mimic or miR-182 mimic and, in rescue experiments, co-transfected with 1 μg of BRCA1 (lacking 3′UTR) expression construct using Lipofectamine 2000. After 2 days, cells were seeded into the wells of 12-well tissue culture plates, incubated overnight, irradiated (5 Gy) and released in nocadozole (200 ng/ml) containing media after 2 hours. The next day the cells were stained with primary Phospho-H3 (Ser10) antibodies 1:100 dilution (Upstate Biotechnology, Lake Placid, N.Y.) and FITC-labeled secondary antibodies 1:50 dilution (Santa Cruz Biotechnology, Santa Cruz, Calif.) and analyzed by flow cytometry.
(In general: Flow cytometry measures light scatter and fluorescence of single cells or particles in a stream.)

For series [2], the system named is MDA-MB231 cells. In words: Single-cell gel electrophoresis (comet) assay after irradiation, MDA-MB231. Conditions: MDA-MB231, 18 h repair, vs control mimic. As to the method:
21NT cells (0.35×10^6 cells/well in 6 well tissue culture plate) were transfected with 100 nM control or miR-182 antagomir expression vector (Ambion, Austin, Tex.) whereas MDA-MB231 (0.35×10^6 cells/well on 6 well plate) were transfected with 10 nM control or miR-182 mimic expression vector (Ambion, Austin, Tex.) using Lipofectamine 2000. At day 3 after transfection, cells were irradiated (0, 2, 4 and 6 Gy) and allowed to recover for 18 hours prior to analysis. The single cell comet assays was carried out according manufacturer's instructions (Trevigen, Gaithersburg, Md.). Briefly, treated or untreated cells were collected, resuspended in ice cold PBS at 10^5 cells/ml, mixed with low-melting point agarose (1:10 ratio) and spread on frosted glass slides. After the agarose solidified, the slides were placed in lysis buffer and then in alkaline solutions. […] Nuclei were visualized using epifluorescent illumination on a Zeiss microscope and images analyzed with National Institutes of Health ImageJ software (rsbweb.nih.gov/ij/). DNA damage was quantified for 70-100 cells for each experimental condition by determining the DNA in the comet tail using the software Comet Score (TriTek, Sumerduck, Va.).

Series [3] deals with BRCA1 3′UTR-luciferase reporter. In words: Luciferase reporter assay with BRCA1 3′UTR in HeLa cells. The method, then: The wild type (WT) and mutated (M) miR-182 recognition elements of 3′UTR-BRCA1 were annealed (see below) and cloned in expression vector, pMIR-REPORT (Ambion, Austin, Tex.) downstream to Firefly Luciferase.
Hela cells were co-transfected in a 24 well tissue culture plate with 10 nM control mimic (Ambion, Austin, Tex.) or miR-182 mimic (Ambion, Austin, Tex.), 0.2 μg 3′UTR-BRCA1-WT or 3′UTR-BRCA1-M, and 0.2 μg Renilla luciferase in pRL-TK (Promega, Madison, Wis.) vector using lipofectamine 2000 as described in manufacture's manual. Cells were harvested on day 2 and the luciferase activity was assayed with the Dual-Luciferase Assay System (Promega, Madison, Wis.) and a Synergy HT microplate reader (BioTek, Winooski, Vt.) as described in manufacture's manual.

Series [4] relates to BRCA1. In words: BRCA1 immunoblot in MDA-MB231 cells. The note with it: MDA-MB231 cells overexpressing miR-182 vs miR-scr. The method, then: In each experiment, where Western blot analysis was done, a fraction of 0.2−0.5×10^6 cells was taken out at day, 3 or 4, post-transfection. Breast cancer cell lines were collected from 6 well tissue culture plates (0.5-1×10^6 cells). Cells lysates were prepared in RIPA buffer (150 mM NaCl, 1% NP-40, 0.5% sodium deoxycholate, 0.1% SDS, 50 mM Tris, pH 8.0). Lysates of 0.1×10^6 cells of each sample plus loading buffer were loaded on 8% SDS-PAGE gels, semi-dry transferred on nitrocellulose membrane, and probed with anti-BRCA1 antibody at a 1:500 dilution (CALBIOCHEM, MS110) and anti-tubulin antibody at a 1:10,000 dilution (Sigma, Clone B-5-1-2).
For orientation: Immunoblotting shows a protein as a band on a membrane.

With “miR-182: microRNA with sequence 5′ UUUGGCAAUGGUAGAACUCACACU 3′ (SEQ ID NO:1); given as mimic (Ambion) or expression vector (UUUGGCAAUGGUAGAACUCACACU; listed as RNA, chemistry not given here; listed as Homo sapiens)”, the “mitotic cells post-DNA damage (G2/M checkpoint)” value in series [1] is on record as “significant increase in mitotic cells; also recorded: impacts the G2/M checkpoint”. Moreover, the figures for the “residual DNA damage (unrepaired DSBs) after irradiation” value in series [2] and in series [2] (listed as 182 mimic) were “significantly higher residual DNA damage” and “significantly altered”, respectively. The “effect of miR-182 on luciferase with mutated miR-182 recognition sites (BRCA1-M reporter)” value in series [3] is “significantly reduced the effect; also recorded: rescued this suppression”. The “reduction of luciferase activity, wildtype BRCA1-reporter” value in series [3] (10 nM mimic, vs control mimic) was “more than 2 fold”. Moreover, in series [3] (normalized to Renilla, p<0.001), the “luciferase activity of BRCA1-WT reporter” value is “suppressed luciferase activity”. Besides, in series [4], the BRCA1 protein level result is recorded as “sharply reduced; also recorded: lower levels; also recorded: diminish BRCA1 levels; also recorded: down regulates BRCA1 protein levels”.
